Data taken from ChEMBL document CHEMBL5357035, “Previously Uncharacterized Variants, OCF-E-OCF-J, of the Antifungal Occidiofungin Produced by Burkholderia contaminans MS14” (2024).
In brackets after ≈: the same amount, converted by molar mass.

Experiments:
Format in all cases: functional
[1] = tested on: Candida albicans; test: Antifungal activity against Candida albicans ATCC3147 assessed as reduction in fungal growth measured after 24 hrs by CLSI protocol based method
[2] = tested on: Nakaseomyces glabratus; test: Antifungal activity against Candida glabrata ATCC2001 assessed as reduction in fungal growth measured after 24 hrs by CLSI protocol based method
[3] = tested on: [Candida] auris; test: Antifungal activity against Candida auris MYA-500 assessed as reduction in fungal growth measured after 24 hrs by CLSI protocol based method; conditions: Candidozyma auris

Structure (SMILES)	MIC [1] [µg/mL]	MIC [2] [µg/mL]	MIC [3] [µg/mL]
CCCCCCCCCCCCNC(=O)C[C@@H]1NC(=O)CNC(=O)[C@@H](CCN)NC(=O)[C@@H]([C@H](O)c2ccc(O)cc2)NC(=O)[C@H](CO)NC(=O)C[C@@H](C[C@@H](O)[C@@H](O)[C@@H](CCCCCCCCCCC)O[C@H]2OC[C@@H](O)[C@H](O)[C@H]2O)NC(=O)[C@H]([C@H](O)C(N)=O)NC(=O)[C@@H](CO)NC1=O	> 8	8 (≈ 5.78 µM)	
CCCCCCCCCCC[C@@H](O[C@H]1OC[C@@H](O)[C@H](O)[C@H]1O)[C@H](O)[C@H](O)C[C@@H]1CC(=O)N[C@@H](CO)C(=O)N[C@H]([C@H](O)c2ccc(O)cc2)C(=O)N[C@H](CCN)C(=O)NCC(=O)N[C@@H](CC(=O)N(C)C)C(=O)N[C@H](CO)C(=O)N[C@@H]([C@H](O)C(N)=O)C(=O)N1	1 (≈ 0.804 µM)	0.5 (≈ 0.402 µM)	0.5 (≈ 0.402 µM)
C#CCCNC(=O)C[C@@H]1NC(=O)CNC(=O)[C@@H](CCN)NC(=O)[C@@H]([C@H](O)c2ccc(O)cc2)NC(=O)[C@H](CO)NC(=O)C[C@@H](C[C@@H](O)[C@@H](O)[C@@H](CCCCCCCCCCC)O[C@H]2OC[C@@H](O)[C@H](O)[C@H]2O)NC(=O)[C@H](CC(N)=O)NC(=O)[C@@H](CO)NC1=O	0.5 (≈ 0.399 µM)	0.5 (≈ 0.399 µM)	
CCCCCCCCCCC[C@@H](O[C@H]1OC[C@@H](O)[C@H](O)[C@H]1O)[C@H](O)[C@H](O)C[C@@H]1CC(=O)N[C@@H](CO)C(=O)N[C@H]([C@H](O)c2ccc(O)cc2)C(=O)N[C@H](CCN)C(=O)NCC(=O)N[C@@H](CC(=O)NCC)C(=O)N[C@H](CO)C(=O)N[C@@H](CC(N)=O)C(=O)N1	2 (≈ 1.63 µM)	2 (≈ 1.63 µM)	1 (≈ 0.814 µM)
CCCCCCCCCCC[C@@H](O[C@H]1OC[C@@H](O)[C@H](O)[C@H]1O)[C@H](O)[C@H](O)C[C@@H]1CC(=O)N[C@@H](CO)C(=O)N[C@H]([C@H](O)c2ccc(O)cc2)C(=O)N[C@H](CCN)C(=O)NCC(=O)N[C@@H](CC(N)=O)C(=O)N[C@H](CO)C(=O)N[C@@H](CC(N)=O)C(=O)N1	0.125 (≈ 0.104 µM)	0.25 (≈ 0.208 µM)	0.25 (≈ 0.208 µM)
CCCCCCCCCCC[C@@H](O[C@H]1OC[C@@H](O)[C@H](O)[C@H]1O)[C@H](O)[C@H](O)C[C@@H]1CC(=O)N[C@@H](CO)C(=O)N[C@H]([C@H](O)c2ccc(O)cc2)C(=O)N[C@H](CCN)C(=O)NCC(=O)N[C@@H](CC(=O)O)C(=O)N[C@H](CO)C(=O)N[C@@H](CC(N)=O)C(=O)N1	2 (≈ 1.66 µM)	2 (≈ 1.66 µM)	1 (≈ 0.832 µM)
CCCCCCCCCCC[C@@H](O[C@H]1OC[C@@H](O)[C@H](O)[C@H]1O)[C@H](O)[C@H](O)C[C@@H]1CC(=O)N[C@@H](CO)C(=O)N[C@H]([C@H](O)c2ccc(O)cc2)C(=O)N[C@H](CCN)C(=O)NCC(=O)N[C@@H](CC(=O)NC)C(=O)N[C@H](CO)C(=O)N[C@@H]([C@H](O)C(N)=O)C(=O)N1	0.5 (≈ 0.406 µM)	0.5 (≈ 0.406 µM)	0.5 (≈ 0.406 µM)
CCCCCCCCCCCCNC(=O)C[C@@H]1NC(=O)CNC(=O)[C@@H](CCN)NC(=O)[C@@H]([C@H](O)c2ccc(O)cc2)NC(=O)[C@H](CO)NC(=O)C[C@@H](C[C@@H](O)[C@@H](O)[C@@H](CCCCCCCCCCC)O[C@H]2OC[C@@H](O)[C@H](O)[C@H]2O)NC(=O)[C@H](CC(N)=O)NC(=O)[C@@H](CO)NC1=O	> 8	8 (≈ 5.85 µM)	
C#CCCNC(=O)C[C@@H]1NC(=O)CNC(=O)[C@@H](CCN)NC(=O)[C@@H]([C@H](O)c2ccc(O)cc2)NC(=O)[C@H](CO)NC(=O)C[C@@H](C[C@@H](O)[C@@H](O)[C@@H](CCCCCCCCCCC)O[C@H]2OC[C@@H](O)[C@H](O)[C@H]2O)NC(=O)[C@H]([C@H](O)C(N)=O)NC(=O)[C@@H](CO)NC1=O	0.5 (≈ 0.394 µM)	0.5 (≈ 0.394 µM)	
CCCCCCCCCCC[C@@H](O[C@H]1OC[C@@H](O)[C@H](O)[C@H]1O)[C@H](O)[C@H](O)C[C@@H]1CC(=O)N[C@@H](CO)C(=O)N[C@H]([C@H](O)c2ccc(O)cc2)C(=O)N[C@H](CCN)C(=O)NCC(=O)N[C@@H](CC(=O)NCCC)C(=O)N[C@H](CO)C(=O)N[C@@H]([C@H](O)C(N)=O)C(=O)N1	0.5 (≈ 0.397 µM)	0.5 (≈ 0.397 µM)	1 (≈ 0.795 µM)
CCCCCCCCCCC[C@@H](O[C@H]1OC[C@@H](O)[C@H](O)[C@H]1O)[C@H](O)[C@H](O)C[C@@H]1CC(=O)N[C@@H](CO)C(=O)N[C@H]([C@H](O)c2ccc(O)cc2)C(=O)N[C@H](CCN)C(=O)NCC(=O)N[C@@H](CC(N)=O)C(=O)N[C@H](CO)C(=O)N[C@@H]([C@H](O)C(N)=O)C(=O)N1	0.125 (≈ 0.103 µM)	0.25 (≈ 0.206 µM)	0.25 (≈ 0.206 µM)
CCCCCCCCCCC[C@@H](O[C@H]1OC[C@@H](O)[C@H](O)[C@H]1O)[C@H](O)[C@H](O)C[C@@H]1CC(=O)N[C@@H](CO)C(=O)N[C@H]([C@H](O)c2ccc(O)cc2)C(=O)N[C@H](CCN)C(=O)NCC(=O)N[C@@H](CC(=O)O)C(=O)N[C@H](CO)C(=O)N[C@@H]([C@H](O)C(N)=O)C(=O)N1	2 (≈ 1.64 µM)	2 (≈ 1.64 µM)	1 (≈ 0.821 µM)
CCCCCCCCCCC[C@@H](O[C@H]1OC[C@@H](O)[C@H](O)[C@H]1O)[C@H](O)[C@H](O)C[C@@H]1CC(=O)N[C@@H](CO)C(=O)N[C@H]([C@H](O)c2ccc(O)cc2)C(=O)N[C@H](CCN)C(=O)NCC(=O)N[C@@H](CC(=O)NCC)C(=O)N[C@H](CO)C(=O)N[C@@H]([C@H](O)C(N)=O)C(=O)N1	2 (≈ 1.61 µM)	2 (≈ 1.61 µM)	1 (≈ 0.804 µM)
CCCCCCCCCCC[C@@H](O[C@H]1OC[C@@H](O)[C@H](O)[C@H]1O)[C@H](O)[C@H](O)C[C@@H]1CC(=O)N[C@@H](CO)C(=O)N[C@H]([C@H](O)c2ccc(O)cc2)C(=O)N[C@H](CCN)C(=O)NCC(=O)N[C@@H](CC(=O)N(C)C)C(=O)N[C@H](CO)C(=O)N[C@@H](CC(N)=O)C(=O)N1	1 (≈ 0.814 µM)	0.5 (≈ 0.407 µM)	0.5 (≈ 0.407 µM)
CCCCCCCCCCC[C@@H](O[C@H]1OC[C@@H](O)[C@H](O)[C@H]1O)[C@H](O)[C@H](O)C[C@@H]1CC(=O)N[C@@H](CO)C(=O)N[C@H]([C@H](O)c2ccc(O)cc2)C(=O)N[C@H](CCN)C(=O)NCC(=O)N[C@@H](CC(=O)NC)C(=O)N[C@H](CO)C(=O)N[C@@H](CC(N)=O)C(=O)N1	0.5 (≈ 0.412 µM)	0.5 (≈ 0.412 µM)	0.5 (≈ 0.412 µM)
CCCCCCCCCCC[C@@H](O[C@H]1OC[C@@H](O)[C@H](O)[C@H]1O)[C@H](O)[C@H](O)C[C@@H]1CC(=O)N[C@@H](CO)C(=O)N[C@H]([C@H](O)c2ccc(O)cc2)C(=O)N[C@H](CCN)C(=O)NCC(=O)N[C@@H](CC(=O)NCCC)C(=O)N[C@H](CO)C(=O)N[C@@H](CC(N)=O)C(=O)N1	0.5 (≈ 0.402 µM)	0.5 (≈ 0.402 µM)	1 (≈ 0.805 µM)
